Results published in ChEMBL document CHEMBL3217640, “Labile natural products” (Medchemcomm, 2012).

How the values were obtained:
[1] = system: Mus musculus; test: Toxicity in po dosed mouse; format: organism-based; conditions: in vivo
[2] = system: Rattus norvegicus; test: Antiinflammatory activity in Wistar rat assessed as inhibition of heat-killed Mycobacterium butyricum-induced paw swelling at 10 mg/kg, po administered on day 10 to 15 measured everyday of compound dosing by plethysmometer relative to control; format: functional; conditions: 240 h

Structure (SMILES) | LD100 [1] [mg/kg] | inhibition in vivo at 10 mg/kg [2] [%]
O=C(O)C1C=C1 | 2.5 | 
CCCCCc1oc(CCCCCCCCCCC(=O)OCC)c(C)c1C |  | 74
